According to the NIST ThermoML archive (doi:10.1016/j.jct.2012.08.030):
± gives the expanded uncertainty stated by the source.

Columns and labels:
[1] = refractive index (Na D-line) (dimensionless); details: 101.33 kPa, Liquid, Standard Abbe refractometry
[2] = 101.3 kPa, Liquid; for speed of sound: Sing-around technique in a fixed-path interferometer; for mass density: Vibrating tube method
[3] = refractive index (Na D-line) (dimensionless); xn = mol fraction of the nth substance listed; details: 101.3 kPa, Liquid, Standard Abbe refractometry, x2 = 0
[4] = xn = mol fraction of the nth substance listed; details: 101.3 kPa, Liquid, x2 = 0; for speed of sound: Sing-around technique in a fixed-path interferometer; for mass density: Vibrating tube method

SMILES	refractive index ([1]; 298.15 K)	refractive index ([1]; 303.15 K)	refractive index ([1]; 308.15 K)	refractive index ([1]; 313.15 K)	speed of sound ([2]; 298.15 K)	mass density ([2]; 298.15 K)	speed of sound ([2]; 303.15 K)	mass density ([2]; 303.15 K)	speed of sound ([2]; 308.15 K)	mass density ([2]; 308.15 K)	speed of sound ([2]; 313.15 K)	mass density ([2]; 313.15 K)	refractive index ([3]; 298.15 K)	refractive index ([3]; 303.15 K)	refractive index ([3]; 308.15 K)	refractive index ([3]; 313.15 K)	speed of sound ([4]; 298.15 K)	mass density ([4]; 298.15 K)	speed of sound ([4]; 303.15 K)	mass density ([4]; 303.15 K)	also measured
CCCCO [butan-1-ol]	1.39747 ± 0.00037	1.39549 ± 0.00037	1.39342 ± 0.00037	1.39138 ± 0.00037	1239.3 ± 1.2 m/s	805.93 ± 0.24 kg/m3	1222.9 ± 1.2 m/s	802.088 ± 0.24 kg/m3	1206.3 ± 1.2 m/s	798.214 ± 0.24 kg/m3	1189.7 ± 1.2 m/s	794.301 ± 0.24 kg/m3	–	–	–	–	–	–	–	–	–
CO [methanol] + CCCCn1cc[n+](C)c1.COS(=O)(=O)[O-]	–	–	–	–	–	–	–	–	–	–	–	–	1.3272 ± 0.00031	1.32552 ± 0.00031	1.32362 ± 0.00031	1.32171 ± 0.00031	1104.3 ± 0.59 m/s	787.405 ± 0.12 kg/m3	1088.3 ± 0.59 m/s	782.688 ± 0.12 kg/m3	speed of sound ([4]; 308.15 K): 1072 ± 0.58 m/s; mass density ([4]; 308.15 K): 777.941 ± 0.12 kg/m3; speed of sound ([4]; 313.15 K): 1055.9 ± 0.58 m/s; mass density ([4]; 313.15 K): 773.168 ± 0.12 kg/m3
CCCO [propan-1-ol] + CCCCn1cc[n+](C)c1.COS(=O)(=O)[O-]	–	–	–	–	–	–	–	–	–	–	–	–	1.38334 ± 0.00033	1.38131 ± 0.00033	1.37926 ± 0.00033	1.37722 ± 0.00033	1205.9 ± 0.8 m/s	800.008 ± 0.14 kg/m3	1189.3 ± 0.8 m/s	795.97 ± 0.14 kg/m3	speed of sound ([4]; 308.15 K): 1172.4 ± 0.79 m/s; mass density ([4]; 308.15 K): 791.892 ± 0.14 kg/m3; speed of sound ([4]; 313.15 K): 1155.5 ± 0.79 m/s; mass density ([4]; 313.15 K): 787.772 ± 0.14 kg/m3
CC(C)O [propan-2-ol] + CCCCn1cc[n+](C)c1.COS(=O)(=O)[O-]	–	–	–	–	–	–	–	–	–	–	–	–	1.37527 ± 0.00033	1.37314 ± 0.00033	1.37093 ± 0.00033	1.3687 ± 0.00033	1138.7 ± 0.78 m/s	781.123 ± 0.15 kg/m3	1121.4 ± 0.78 m/s	776.845 ± 0.15 kg/m3	speed of sound ([4]; 308.15 K): 1103.9 ± 0.77 m/s; mass density ([4]; 308.15 K): 772.487 ± 0.15 kg/m3; speed of sound ([4]; 313.15 K): 1086.6 ± 0.77 m/s; mass density ([4]; 313.15 K): 768.053 ± 0.15 kg/m3
CCCO [propan-1-ol]	1.38334 ± 0.00033	1.38131 ± 0.00033	1.37926 ± 0.00033	1.37722 ± 0.00033	1205.9 ± 0.8 m/s	800.008 ± 0.14 kg/m3	1189.3 ± 0.8 m/s	795.97 ± 0.14 kg/m3	1172.4 ± 0.79 m/s	791.892 ± 0.14 kg/m3	1155.5 ± 0.79 m/s	787.772 ± 0.14 kg/m3	–	–	–	–	–	–	–	–	–
CCCCO [butan-1-ol] + CCCCn1cc[n+](C)c1.COS(=O)(=O)[O-]	–	–	–	–	–	–	–	–	–	–	–	–	1.39747 ± 0.00037	1.39549 ± 0.00037	1.39342 ± 0.00037	1.39138 ± 0.00037	1239.3 ± 1.2 m/s	805.93 ± 0.24 kg/m3	1222.9 ± 1.2 m/s	802.088 ± 0.24 kg/m3	speed of sound ([4]; 308.15 K): 1206.3 ± 1.2 m/s; mass density ([4]; 308.15 K): 798.214 ± 0.24 kg/m3; speed of sound ([4]; 313.15 K): 1189.7 ± 1.2 m/s; mass density ([4]; 313.15 K): 794.301 ± 0.24 kg/m3
CCCCn1cc[n+](C)c1.COS(=O)(=O)[O-] [1-butyl-3-methylimidazolium methyl sulfate]	1.47824 ± 0.00068	1.47704 ± 0.00068	1.47577 ± 0.00068	1.47443 ± 0.00068	1654.6 ± 3.1 m/s	1212.06 ± 2.8 kg/m3	1642.2 ± 3.1 m/s	1208.7 ± 2.8 kg/m3	1630 ± 3.1 m/s	1205.35 ± 2.8 kg/m3	1617.9 ± 3.1 m/s	1202.01 ± 2.8 kg/m3	–	–	–	–	–	–	–	–	–
CO [methanol]	1.3272 ± 0.00031	1.32552 ± 0.00031	1.32362 ± 0.00031	1.32171 ± 0.00031	1104.3 ± 0.59 m/s	787.405 ± 0.12 kg/m3	1088.3 ± 0.59 m/s	782.688 ± 0.12 kg/m3	1072 ± 0.58 m/s	777.941 ± 0.12 kg/m3	1055.9 ± 0.58 m/s	773.168 ± 0.12 kg/m3	–	–	–	–	–	–	–	–	–
CC(C)O [propan-2-ol]	1.37527 ± 0.00033	1.37314 ± 0.00033	1.37093 ± 0.00033	1.3687 ± 0.00033	1138.7 ± 0.78 m/s	781.123 ± 0.15 kg/m3	1121.4 ± 0.78 m/s	776.845 ± 0.15 kg/m3	1103.9 ± 0.77 m/s	772.487 ± 0.15 kg/m3	1086.6 ± 0.77 m/s	768.053 ± 0.15 kg/m3	–	–	–	–	–	–	–	–	–
